Measured values published in US20240366598A1, “GLUCOSE-DEPENDENT INSULINOTROPIC POLYPEPTIDE RECEPTOR ANTAGONISTS AND USES THEREOF” (Pfizer Inc., priority 2023, published 2024).

Target: T1, human Glucose-dependent Insulinotropic Polypeptide Receptor (hGIPR) (Homo sapiens, UniProt P48546)
T1 sequence (P48546 22-466): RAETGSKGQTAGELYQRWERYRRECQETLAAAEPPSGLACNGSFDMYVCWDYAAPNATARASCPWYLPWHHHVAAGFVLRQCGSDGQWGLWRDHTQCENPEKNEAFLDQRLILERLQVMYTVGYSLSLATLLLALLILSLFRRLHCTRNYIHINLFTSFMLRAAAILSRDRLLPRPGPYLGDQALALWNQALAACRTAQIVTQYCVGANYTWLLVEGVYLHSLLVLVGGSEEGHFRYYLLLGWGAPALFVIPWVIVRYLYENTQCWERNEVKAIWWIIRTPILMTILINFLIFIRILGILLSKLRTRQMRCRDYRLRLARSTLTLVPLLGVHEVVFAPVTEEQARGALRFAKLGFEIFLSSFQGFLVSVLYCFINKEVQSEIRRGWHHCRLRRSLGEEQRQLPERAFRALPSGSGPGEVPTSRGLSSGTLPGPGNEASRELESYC
Assay: Functional in vitro GIPR antagonist potency assay (cAMP HTRF, CHO-K1 cells stably expressing hGIPR, hGIP stimulation at about EC80)
Assay type: cell-based
Settings: geometric mean, hGIP at estimated EC80, examples marked ^2: overall geometric mean of multiple forms (including salts) tested
Method in brief: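 HTRF quantification of cAMP after stimulation with hGIP at an estimated EC80 for 30 min at 37 °C. Before stimulation, hGIPR-expressing CHO-K1 cells were exposed 2 h to test compound in IBMX-containing buffer, with 0.5% DMSO final. Percent effect is referenced to agonist alone (0%) and to 80 μM of a reference antagonist (100%), and runs required the agonist concentration to fall within the on-the-day EC50–EC90.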

Structure (SMILES)	IC50 [nM]
Cc1cc(-c2ccc(NC(=O)[C@H]3CCCN3C(=O)Nc3ccc(C(C)C)c(C)c3)nc2)ccc1C(=O)O [Example 185, 2-methyl-4-{6-[(1-{[3-methyl-4-(propan-2-yl)phenyl]carbamoyl}-D-prolyl)amino]pyridin-3-yl}benzoic acid]	4.2
O=C(O)c1cccc(-c2ccc(NC(=O)[C@H]3CCCN3C(=O)Nc3ccc(Cl)c(C(F)(F)F)c3)nc2)c1 [Example 188, 3-{6-[(1-{[4-chloro-3-(trifluoromethyl)phenyl]carbamoyl}-D-prolyl)amino]pyridin-3-yl}benzoic acid]	32
Cc1cc(-c2ccc(NC(=O)[C@H]3CCCN3C(=O)NCc3ccc(C(F)(F)F)c(F)c3)nc2)ccc1C(=O)O [Example 190, 4-(6-{[1-({[3-fluoro-4-(trifluoromethyl)phenyl]methyl}carbamoyl)-D-prolyl]amino}pyridin-3-yl)-2-methylbenzoic acid]	9.9
CC(C)c1ccc(NC(=O)N2CCC[C@@H]2C(=O)Nc2ccc(-c3ccc(C(=O)O)cc3)nc2)cc1F [Example 194, 4-{5-[(1-{[3-fluoro-4-(propan-2-yl)phenyl]carbamoyl}-D-prolyl)amino]pyridin-2-yl}benzoic acid]	14
O=C(O)c1ccc(-c2ccc(NC(=O)[C@H]3CCCN3C(=O)NCc3ccc(C(F)(F)F)cc3)cc2)cn1 [Example 195, 5-(4-{[1-({[4-(trifluoromethyl)phenyl]methyl}carbamoyl)-D-prolyl]amino}phenyl)pyridine-2-carboxylic acid]	35
O=C(O)c1ccc(-c2ccc(NC(=O)[C@H]3CCCN3C(=O)Nc3ccc(C(F)(F)F)cc3)cc2)cn1 [Example 196, 5-{4-[(1-{[4-(trifluoromethyl)phenyl]carbamoyl}-D-prolyl)amino]phenyl}pyridine-2-carboxylic acid]	49
Cc1cc(NC(=O)N2CCC[C@@H]2C(=O)Nc2ccc(-c3ccc(C(=O)O)cc3)nc2)ncc1C(C)C [Example 198, 4-{5-[(1-{[4-methyl-5-(propan-2-yl)pyridin-2-yl]carbamoyl}-D-prolyl)amino]pyridin-2-yl}benzoic acid]	69
Cc1cc(-c2ccc(NC(=O)[C@H]3CCCN3C(=O)Nc3ccc(C(C)C)cc3)nc2)ccc1C(=O)O [Example 200, 2-methyl-4-{6-[(1-{[4-(propan-2-yl)phenyl]carbamoyl}-D-prolyl)amino]pyridin-3-yl}benzoic acid]	9.9
Cc1nc(C(=O)O)ccc1-c1ccc(NC(=O)[C@H]2CCCN2C(=O)NCc2ccc(C(C)C)cc2)cc1 [Example 205, 6-methyl-5-(4-{[1-({[4-(propan-2-yl)phenyl]methyl}carbamoyl)-D-prolyl]amino}phenyl)pyridine-2-carboxylic acid]	14
Cc1nc(C(=O)O)ccc1-c1ccc(NC(=O)[C@H]2CCCN2C(=O)NCc2ccc(C(F)(F)F)cc2)cc1 [Example 206, 6-methyl-5-(4-{[1-{{[4-(trifluoromethyl)phenyl]methyl}carbamoyl)-D-prolyl]amino}phenyl)pyridine-2-carboxylic acid]	14
CC(C)c1ccc(NC(=O)N2CCC[C@@H]2C(=O)Nc2ccc(-c3ccc(C(=O)O)cc3)cn2)cc1F [Example 207, 4-{6-[(1-{[3-fluoro-4-(propan-2-yl)phenyl]carbamoyl}-D-prolyl)amino]pyridin-3-yl}benzoic acid]	1.3
CC(C)c1ccc(NC(=O)N2CCC[C@@H]2C(=O)Nc2ccc(-c3ccc(C(=O)O)nc3)cc2)cc1F [Example 208, 5-{4-[(1-{[3-fluoro-4-(propan-2-yl)phenyl]carbamoyl}-D-prolyl)amino]phenyl}pyridine-2-carboxylic acid]	4.9
O=C(O)c1ccc(-c2ccc(NC(=O)[C@H]3CCCN3C(=O)Nc3ccc(C4CCC4)cc3)cc2)cn1 [Example 211, 5-[4-({1-[(4-cyclobutylphenyl)carbamoyl]-D-prolyl}amino)phenyl]pyridine-2-carboxylic acid]	7
Cc1ccc(CNC(=O)N2CCC[C@@H]2C(=O)Nc2ccc(-c3ccc(C(=O)O)nc3C)cc2)cc1F [Example 212, 5-{4-[(1-{[(3-fluoro-4-methylphenyl)methyl]carbamoyl}-D-prolyl)amino]phenyl}-6-methylpyridine-2-carboxylic acid]	18
Cc1nc(C(=O)O)ccc1-c1ccc(NC(=O)[C@H]2CCCN2C(=O)Nc2cnc(C(C)C)c(F)c2)cc1 [Example 213, 5-{4-[(1-{[5-fluoro-6-(propan-2-yl)pyridin-3-yl]carbamoyl}-D-prolyl)amino]phenyl}-6-methylpyridine-2-carboxylic acid]	90

Next, values leading:

IC50 [nM]	Structure (SMILES)
36	Cc1cc(NC(=O)N2CCC[C@@H]2C(=O)Nc2ccc(-c3ccc(C(=O)O)c(F)c3)cn2)ccc1C(F)(F)F [Example 186, 2-fluoro-4-{6-[(1-{[3-methyl-4-(trifluoromethyl)phenyl]carbamoyl}-D-prolyl)amino]pyridin-3-yl}benzoic acid]
51	Cc1cc(NC(=O)N2CCC[C@@H]2C(=O)Nc2ccc(-c3ccc(C(=O)O)c(F)c3)cn2)ccc1C(C)C [Example 187, 2-fluoro-4-{6-[(1-{[3-methyl-4-(propan-2-yl)phenyl]carbamoyl}-D-prolyl)amino]pyridin-3-yl}benzoic acid]
42	CC(C)c1ccc(CNC(=O)N2CCC[C@@H]2C(=O)Nc2ccc(-c3ccc(C(=O)O)c(F)c3)cn2)cc1 [Example 189, 2-fluoro-4-(6-{[1-({[4-(propan-2-yl)phenyl]methyl}carbamoyl)-D-prolyl]amino}pyridin-3-yl)benzoic acid]
14	Cc1cc(-c2ccc(NC(=O)[C@H]3CCCN3C(=O)NCc3ccc(C(C)C)cc3)nc2)ccc1C(=O)O [Example 191, 2-methyl-4-(6-{[1-{{[4-(propan-2-yl)phenyl]methyl}carbamoyl)-D-prolyl]amino}pyridin-3-yl)benzoic acid]
12	Cc1cc(-c2ccc(NC(=O)[C@H]3CCCN3C(=O)NCc3ccc(C(F)(F)F)cc3)nc2)ccc1C(=O)O [Example 192, 2-methyl-4-(6-{[1-({[4-(trifluoromethyl)phenyl]methyl}carbamoyl)-D-prolyl]amino}pyridin-3-yl)benzoic acid]
17	O=C(O)c1ccc(-c2ncc(NC(=O)[C@H]3CCCN3C(=O)Nc3ccc(C(F)(F)F)cc3)cc2F)cc1 [Example 193, 4-{3-fluoro-5-[(1-{[4-(trifluoromethyl)phenyl]carbamoyl}-D-prolyl)amino]pyridin-2-yl}benzoic acid]
29	O=C(O)c1ccc(-c2ccc(NC(=O)[C@H]3CCCN3C(=O)Nc3ccc(C4(C(F)(F)F)CC4)cc3)cc2)cn1 [Example 197, 5-(4-{[1-({4-[1-(trifluoromethyl)cyclopropyl]phenyl}carbamoyl)-D-prolyl]amino}phenyl)pyridine-2-carboxylic acid]
71	CC(C)c1ccc(NC(=O)N2CCC[C@@H]2C(=O)Nc2ccc(-c3ccc(C(=O)O)c(F)c3)cn2)cc1 [Example 199, 2-fluoro-4-{6-[(1-{[4-(propan-2-yl)phenyl]carbamoyl}-D-prolyl)amino]pyridin-3-yl}benzoic acid]
91	Cc1cc(NC(=O)N2CCC[C@@H]2C(=O)Nc2ccc(-c3ccc(C(=O)O)nc3)cn2)ccc1C(C)C [Example 201, ammonium 6′-[(1-{[3-methyl-4-(propan-2-yl)phenyl]carbamoyl}-D-prolyl)amino][3,3′-bipyridine]-6-carboxylate]
22	Cc1cc(NC(=O)N2CCC[C@@H]2C(=O)Nc2ccc(-c3cccc(C(=O)O)c3)cn2)ncc1C(F)(F)F [Example 202, 3-{6-[(1-{[4-methyl-5-(trifluoromethyl)pyridin-2-yl]carbamoyl}-D-prolyl)amino]pyridin-3-yl}benzoic acid]
8.4	Cc1cc(NC(=O)N2CCC[C@@H]2C(=O)Nc2ccc(-c3ccc(C(=O)O)cc3)cc2)ncc1C(F)(F)F [Example 203, 4′-[(1-{[4-methyl-5-(trifluoromethyl)pyridin-2-yl]carbamoyl}-D-prolyl)amino][1,1′-biphenyl]-4-carboxylic acid]
14	O=C(O)c1ccc(-c2ccc(NC(=O)[C@H]3CCCN3C(=O)Nc3ccc(C(F)(F)F)cc3)cc2)cc1F [Example 204, 3-fluoro-4′-[(1-{[4-(trifluoromethyl)phenyl]carbamoyl}-D-prolyl)amino][1,1′-biphenyl]-4-carboxylic acid]
7.4	Cc1cc(-c2ccc(NC(=O)[C@H]3CCCN3C(=O)Nc3ccc(C(F)(F)F)cc3)cc2)ccc1C(=O)O [Example 209, 3-methyl-4′-[(1-{[4-(trifluoromethyl)phenyl]carbamoyl}-D-prolyl)amino][1,1′-biphenyl]-4-carboxylic acid]
9.3	O=C(O)c1ccc(-c2ccc(NC(=O)[C@H]3CCCN3C(=O)Nc3ccc(C4CCC4)cc3)nc2)cc1 [Example 210, 4-[6-({1-[(4-cyclobutylphenyl)carbamoyl]-D-prolyl}amino)pyridin-3-yl]benzoic acid]
6.7	CC(C)c1ccc(NC(=O)N2CCC[C@@H]2C(=O)Nc2ccc(-c3ccc(C(=O)O)c(F)c3)cc2)cc1F [Example 214, 3-fluoro-4′-[(1-{[3-fluoro-4-(propan-2-yl)phenyl]carbamoyl}-D-prolyl)amino][1,1′-biphenyl]-4-carboxylic acid]
